Experimental data reported in publication PMC3626250, “Effects of Borneol on Pharmacokinetics and Tissue Distribution of Notoginsenoside R1 and Ginsenosides Rg1 and Re in Panax notoginseng in Rabbits” (Journal of Analytical Methods in Chemistry, 2013).
Marks after values point to notes of the source that are not given here.

How the values were obtained:
[1] = Tissue distribution study in rabbits after oral Panax notoginseng extract with or without Borneol; format: in vivo, New Zealand rabbits
Procedure: (§1) Frozen plasma and tissue samples were thawed in a water bath at 37°C and were then vortexed followed by centrifuging at 5000 r·min^−1 for 5 min. An aliquot of 1.0 mL of the supernatant from each sample was loaded onto C18 Bond Elute Solid phase extraction (SPE) cartridges (1000 mg, 1 cc reservoir, Varian, Harbor City, CA, USA) pretreated with 2.0 mL hexane, isopropanol, methanol, and water, sequentially. The SPE cartridges were then washed with 1.0 mL water, 20% methanol/water solution, 40% methanol/water solution, and 60% methanol/water solution, sequentially. Finally, analytes were eluted twice with 1.0 mL of 70% methanol/water solution. The eluant was evaporated to dryness under nitrogen. The residues were then reconstituted in 1.0 mL mobile phase. An aliquot of 10 μL was injected into the LC-MS system.
One group of rabbits (n = 18) was orally administered a dose of 3.0 mL·kg^−1 Panax notoginseng extract, while another group of rabbits (n = 18) was orally given 3.0 mL·kg^−1 Panax notoginseng extract combined with Borneol. At 0.5, 1, and 3 h after administration, blood samples were collected from the central ear artery of six rabbits from each group, and the heart, liver, lung, kidney, and brain were immediately removed after animals were sacrificed by decapitation. An accurately weighed amount of tissue (1 g) was collected to be rinsed, dried, minced, and homogenized (400 r·min^−1) in normal saline (1.5 mL). All of the samples were stored at −70°C and were processed prior to analysis with the proposed method as described in Section 2.6.

[2] = Pharmacokinetics study in rabbits after oral Panax notoginseng extract with or without Borneol (plasma, SPE-HPLC-MS); format: in vivo, New Zealand rabbits
Procedure: Liquid chromatography was carried out on an Agilent 1100 HPLC system with an auto sampler, a quaternary pump and a vacuum degasser (Waldoboro, Frankfurt, Germany). Operations were controlled by Agilent Chemstation 4.2 software (Littleforts, Philadelphia, USA). Separations were achieved on a reversed-phase HPLC column (Zorbax SB-C18 150 × 2.1 mm, 5.0 μm particle size). A solution of acetonitrile and water (V : V, 20 : 80) with 0.1% (V : V) ammonium formate was used as the mobile phase. The flow rate was set at 0.3 mL·min^−1 and the column temperature was 25°C. Under these conditions, NGR1, GRg1, and GRe in plasma samples were separated efficiently without any interferences.
MS^n detection was performed on an Agilent SL trap MS system (Waldoboro, Frankfurt, Germany). The ion source-dependent (electrospray ionization) conditions were the same for all analyses with a spraying voltage of −4500 V in the negative ion mode. The pressure of the nebulizing gas (nitrogen) was set at 35 p.s.i. The flow rate of the drying gas (nitrogen) was set at 7.0 L·min^−1 with the temperature of 325°C. The collision gas (He) for the MS^n mode at trap was set at flow of 4 (instrument unit). The voltage of the capillary was set at 4000 V, and its end plate offset was −500 V. Scan range was from 500 to 1500 m/z.
as §1
Eighteen rabbits were randomly divided into three groups of 6 subjects and were orally given 3.0 mL·kg^−1 normal saline, 3.0 mL·kg^−1 Panax notoginseng extract, and 3.0 mL·kg^−1 Panax notoginseng extract combined with Borneol, respectively. Plasma samples were collected in heparinized tubes from the central ear artery at 0.0, 5.0, 10.0, 20.0, 30.0, 45.0, 60.0, 75.0, 90.0, 120.0, 180.0, 300.0 and 480.0 min after dose. After each sampling, the same volume of 0.9% saline solution was injected from the ear vein to compensate the loss of blood. The plasma obtained was frozen at −70°C for storage and was processed prior to analysis with the proposed method as described in Section 2.6.
Statistical analysis of the biological data was performed using the Student's t-test. The drug analysis system 2.0 (DAS 2.0, T.C.M., Shanghai, China) was used to calculate the pharmacokinetic parameters, such as the area under curve (AUC), the maximum plasma concentration (C max), the time needed to reach the maximum plasma concentration (t max) and the half-life of absorption, and distribution and elimination (t 1/2Ka, t 1/2α, t 1/2β).

[3] = 0.5 h, oral Panax notoginseng with Borneol
[4] = 1.0 h, oral Panax notoginseng with Borneol
[5] = 3.0 h, oral Panax notoginseng with Borneol
[6] = Borneol combined with Panax notoginseng, peak levels at 1.0 h
[7] = oral 3.0 mL·kg^−1 Panax notoginseng extract
[8] = oral 3.0 mL·kg^−1 Panax notoginseng extract combined with Borneol

Concentration in brain ([1]; 0.5 h, oral Panax notoginseng): 0.65 ± 0.24 µg/g
Concentration in heart ([1]; 0.5 h, oral Panax notoginseng): 3.90 ± 0.53 µg/g
Concentration in kidney ([1]; 0.5 h, oral Panax notoginseng): 2.85 ± 0.45 µg/g
Concentration in liver ([1]; 0.5 h, oral Panax notoginseng): 1.38 ± 0.54 µg/g
Concentration in lung ([1]; 0.5 h, oral Panax notoginseng): 1.77 ± 0.46 µg/g
Concentration in plasma ([1]; 0.5 h, oral Panax notoginseng): 1670 ± 50 ng/mL
Concentration in brain [1, 3]: 4.02 ± 0.46 µg/g
Concentration in heart [1, 3]: 4.68 ± 0.21 µg/g
Concentration in kidney [1, 3]: 3.98 ± 0.12 µg/g
Concentration in liver [1, 3]: 8.24 ± 0.42 µg/g
Concentration in lung [1, 3]: 5.79 ± 0.29 µg/g
Concentration in plasma [1, 3]: 1620 ± 70 ng/mL
Concentration in brain ([1]; 1.0 h, oral Panax notoginseng): 0.81 ± 0.26 µg/g
Concentration in heart ([1]; 1.0 h, oral Panax notoginseng): 4.26 ± 0.27 µg/g
Concentration in kidney ([1]; 1.0 h, oral Panax notoginseng): 2.74 ± 0.33 µg/g
Concentration in liver ([1]; 1.0 h, oral Panax notoginseng): 1.66 ± 0.28 µg/g
Concentration in lung ([1]; 1.0 h, oral Panax notoginseng): 1.82 ± 0.20 µg/g
Concentration in plasma ([1]; 1.0 h, oral Panax notoginseng): 1290 ± 200 ng/mL
Concentration in brain [1, 4]: 5.58 ± 0.68 µg/g
Concentration in heart [1, 4]: 5.55 ± 0.31 µg/g
Concentration in kidney [1, 4]: 3.38 ± 0.34 µg/g
Concentration in liver [1, 4]: 9.29 ± 0.72 µg/g
Concentration in lung [1, 4]: 9.96 ± 0.66 µg/g
Concentration in plasma [1, 4]: 1460 ± 50 ng/mL
Concentration in brain ([1]; 3.0 h, oral Panax notoginseng): 0.48 ± 0.14 µg/g
Concentration in heart ([1]; 3.0 h, oral Panax notoginseng): 3.31 ± 0.32 µg/g
Concentration in kidney ([1]; 3.0 h, oral Panax notoginseng): 1.94 ± 0.24 µg/g
Concentration in liver ([1]; 3.0 h, oral Panax notoginseng): 0.89 ± 0.12 µg/g
Concentration in lung ([1]; 3.0 h, oral Panax notoginseng): 1.51 ± 0.16 µg/g
Concentration in plasma ([1]; 3.0 h, oral Panax notoginseng): 160 ± 60 ng/mL
Concentration in brain [1, 5]: 3.69 ± 0.84 µg/g
Concentration in heart [1, 5]: 4.59 ± 0.52 µg/g
Concentration in kidney [1, 5]: 2.27 ± 0.28 µg/g
Concentration in liver [1, 5]: 6.87 ± 0.61 µg/g
Concentration in lung [1, 5]: 4.56 ± 0.75 µg/g
Concentration in plasma [1, 5]: 490 ± 20 ng/mL
level in kidney, fold higher than the plasma concentrations ([1]; Borneol combined with Panax notoginseng, at 1.0 h): 2.3 fold
level in brain, fold higher than the plasma concentrations [1, 6]: 3.82 fold
level in liver, fold higher than the plasma concentrations [1, 6]: 6.36 fold
level in lung, fold higher than the plasma concentrations [1, 6]: 6.82 fold
AUC0–t [2, 7]: 162.1 ± 42.7 mg/L/min
AUC0–∞ [2, 7]: 164.0 ± 51.8 mg/L/min
C max [2, 7]: 2120 ± 460 ng/mL
CL/F [2, 7]: 488 ± 91 mL/min/kg
K 10 [2, 7]: 0.018 ± 0.005 min⁻¹
K 12 [2, 7]: 0.000 ± 0.000 min⁻¹
K 21 [2, 7]: 0.014 ± 0.007 min⁻¹
K a [2, 7]: 0.060 ± 0.004 min⁻¹
T lag [2, 7]: 2.38 ± 0.49 min
T max [2, 7]: 45.0 ± 9.8 min
V/F [2, 7]: 27.3 ± 8.6 L/kg
t 1/2Ka [2, 7]: 11.6 ± 2.4 min
t 1/2α [2, 7]: 38.5 ± 4.5 min
t 1/2β [2, 7]: 47.9 ± 8.1 min
α [2, 7]: 0.018 ± 0.008 min⁻¹
β [2, 7]: 0.014 ± 0.003 min⁻¹
AUC0–t [2, 8]: 306.3 ± 82.9 mg/L/min
AUC0–∞ [2, 8]: 395.3 ± 101.4 mg/L/min
C max [2, 8]: 1620 ± 300 ng/mL
CL/F [2, 8]: 506 ± 27 mL/min/kg
K 10 [2, 8]: 0.009 ± 0.002* min^−1
K 12 [2, 8]: 0.015 ± 0.005** min^−1
K 21 [2, 8]: 0.011 ± 0.002 min⁻¹
K a [2, 8]: 0.037 ± 0.005** min^−1
T lag [2, 8]: 1.04 ± 0.21 min
T max [2, 8]: 30.0 ± 8.0 min
V/F [2, 8]: 58.8 ± 6.9 L/kg
t 1/2Ka [2, 8]: 18.8 ± 3.1 min
t 1/2α [2, 8]: 28.4 ± 3.2 min
t 1/2β [2, 8]: 69.3 ± 5.2 min
α [2, 8]: 0.024 ± 0.005 min⁻¹
β [2, 8]: 0.010 ± 0.003* min^−1
SMILES: CC(C)=CCC[C@](C)(O[C@@H]1O[C@H](CO)[C@@H](O)[C@H](O)[C@H]1O)[C@H]1CC[C@]2(C)[C@@H]1[C@H](O)C[C@@H]1[C@@]3(C)CC[C@H](O)C(C)(C)[C@@H]3[C@@H](O[C@@H]3O[C@H](CO)[C@@H](O)[C@H](O)[C@H]3O[C@@H]3OC[C@@H](O)[C@H](O)[C@H]3O)C[C@]12C [NGR1, notoginsenoside R1]
